What was measured:
VMRC-RCZ = assay: cells; type: functional, cell-based; details: Homo sapiens
Description: SANGER: Inhibition of human VMRC-RCZ cell growth in a cell viability assay.

TE-15 = assay: cells; type: functional, cell-based, Homo sapiens; details: Homo sapiens, TE-15;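 note: cell viability readout of growth inhibition in TE-15 cells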
Description: SANGER: Inhibition of human TE-15 cell growth in a cell viability assay.

SW948 = assay: cells; type: functional, cell-based; details: Homo sapiens;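 note: growth inhibition of SW948 cells, read out with a cell viability assay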
Description: SANGER: Inhibition of human SW948 cell growth in a cell viability assay.

H4 = assay: cells; type: functional, cell-based; details: Homo sapiens
Description: SANGER: Inhibition of human H4 cell growth in a cell viability assay.

769-P = assay: cells; type: functional, cell-based; details: Homo sapiens
Description: SANGER: Inhibition of human 769-P cell growth in a cell viability assay.

EB2 = assay: cells; type: functional, cell-based, Homo sapiens; details: Homo sapiens, EB2;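 note: growth inhibition of EB2 cells, read out with a cell viability assay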
Description: SANGER: Inhibition of human EB2 cell growth in a cell viability assay.

TUR = assay: cells; type: functional, cell-based, Homo sapiens; details: Homo sapiens, TUR;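 note: growth inhibition of human TUR cells, read out with a cell viability assay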
Description: SANGER: Inhibition of human TUR cell growth in a cell viability assay.

LC4-1 = assay: cells; type: functional, cell-based, Homo sapiens; details: Homo sapiens, LC4-1;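 note: growth inhibition of LC4-1 cells, read out with a cell viability assay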
Description: SANGER: Inhibition of human LC4-1 cell growth in a cell viability assay.

PF-382 = assay: cells; type: functional, cell-based, Homo sapiens; details: Homo sapiens, PF-382
Description: SANGER: Inhibition of human PF-382 cell growth in a cell viability assay.

RPMI-2650 = assay: cells; type: functional, cell-based; details: Homo sapiens
Description: SANGER: Inhibition of human RPMI-2650 cell growth in a cell viability assay.

SW780 = assay: cells; type: functional, cell-based; details: Homo sapiens;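 note: growth inhibition of the cells, read out with a cell viability assay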
Description: SANGER: Inhibition of human SW780 cell growth in a cell viability assay.

SW837 = assay: cells; type: functional, cell-based; details: Homo sapiens;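 note: growth inhibition of SW837 cells, determined with a cell viability assay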
Description: SANGER: Inhibition of human SW837 cell growth in a cell viability assay.

NCI-H441 = assay: cells; type: functional, cell-based; details: Homo sapiens;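 note: growth inhibition of NCI-H441 cells, read out with a cell viability assay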
Description: SANGER: Inhibition of human NCI-H441 cell growth in a cell viability assay.

ST486 = assay: SANGER: Inhibition of human ST486 cell growth in a cell viability assay.; type: functional, cell-based; details: Homo sapiens, ST486
CWR22R = assay: cells; type: functional, cell-based; details: Homo sapiens, 22Rv1;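 note: growth inhibition of 22Rv1 cells, read out with a cell viability assay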
Description: SANGER: Inhibition of human 22RV1 cell growth in a cell viability assay.

NCI-H2347 = assay: cells; type: functional, cell-based; details: Homo sapiens;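 note: growth inhibition of the cell line, read out with a cell viability assay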
Description: SANGER: Inhibition of human NCI-H2347 cell growth in a cell viability assay.

Hs-578T = assay: cells; type: functional, cell-based; details: Homo sapiens
Description: SANGER: Inhibition of human Hs-578-T cell growth in a cell viability assay.

LB373-MEL-D = assay: cells; type: functional, cell-based, Homo sapiens; details: Homo sapiens, LB373-MEL-D;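 note: growth inhibition of the cell line, read out in a cell viability assay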
Description: SANGER: Inhibition of human LB373-MEL-D cell growth in a cell viability assay.

UMUC3 = assay: cells; type: functional, cell-based; details: Homo sapiens;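 note: growth inhibition of human UM-UC-3 cells, read out with a cell viability assay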
Description: SANGER: Inhibition of human UM-UC-3 cell growth in a cell viability assay.

NCI-H1522 = assay: cells; type: functional, cell-based, Homo sapiens; details: Homo sapiens, NCI-H1522;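 note: growth inhibition of NCI-H1522 cells, read out with a cell viability assay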
Description: SANGER: Inhibition of human NCI-H1522 cell growth in a cell viability assay.

LCLC-97TM1 = assay: cells; type: functional, cell-based; details: Homo sapiens;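 note: cell viability assay measuring growth inhibition of human LCLC-97TM1 cells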
Description: SANGER: Inhibition of human LCLC-97TM1 cell growth in a cell viability assay.

HT-3 = assay: cells; type: functional, cell-based; details: Homo sapiens;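 note: growth inhibition measured with a cell viability readout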
Description: SANGER: Inhibition of human HT-3 cell growth in a cell viability assay.

CAL-54 = assay: cells; type: functional, cell-based; details: Homo sapiens;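 note: growth inhibition of CAL-54 cells, read out by a viability measurement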
Description: SANGER: Inhibition of human CAL-54 cell growth in a cell viability assay.

NCI-H1417 = assay: cells; type: functional, cell-based, Homo sapiens; details: Homo sapiens, NCI-H1417;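 note: human NCI-H1417 cells, growth inhibition determined with a cell viability readout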
Description: SANGER: Inhibition of human NCI-H1417 cell growth in a cell viability assay.

BL-70 = assay: SANGER: Inhibition of human BL-70 cell growth in a cell viability assay.; type: functional, cell-based; details: Homo sapiens, BL-70
SW13 = assay: cells; type: functional, cell-based; details: Homo sapiens;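 note: IC50 is inhibition of SW13 cell growth, read out with a cell viability assay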
Description: SANGER: Inhibition of human SW13 cell growth in a cell viability assay.

DMS-79 = assay: cells; type: functional, cell-based, Homo sapiens; details: Homo sapiens, DMS-79
Description: SANGER: Inhibition of human DMS-79 cell growth in a cell viability assay.

SKG-IIIa = assay: cells; type: functional, cell-based; details: Homo sapiens;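 note: cell growth inhibition, read out with a cell viability assay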
Description: SANGER: Inhibition of human SKG-IIIa cell growth in a cell viability assay.

DBTRG-05MG = assay: cells; type: functional, cell-based; details: Homo sapiens;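 note: cell viability assay measuring growth inhibition of human DBTRG-05MG cells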
Description: SANGER: Inhibition of human DBTRG-05MG cell growth in a cell viability assay.

MIA PaCa-2 = assay: cells; type: functional, cell-based; details: Homo sapiens;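 note: growth inhibition of MIA PaCa-2 cells, read out with a cell viability assay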
Description: SANGER: Inhibition of human MIA-PaCa-2 cell growth in a cell viability assay.

TCC-SUP = assay: cells; type: functional, cell-based; details: Homo sapiens;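 note: growth inhibition of TCC-SUP cells, read out with a cell viability assay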
Description: SANGER: Inhibition of human TCCSUP cell growth in a cell viability assay.

LU-99A = assay: cells; type: functional, cell-based; details: Homo sapiens;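 note: growth inhibition of LU-99A cells, read out with a cell viability assay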
Description: SANGER: Inhibition of human LU-99A cell growth in a cell viability assay.

BL-41 = assay: cells; type: functional, cell-based; details: Homo sapiens;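 note: growth inhibition of human BL-41 cells, read out with a cell viability assay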
Description: SANGER: Inhibition of human BL-41 cell growth in a cell viability assay.

LOUCY = assay: cells; type: functional, cell-based, Homo sapiens; details: Homo sapiens, LOUCY;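 note: growth inhibition of human LOUCY cells, read out with a cell viability assay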
Description: SANGER: Inhibition of human LOUCY cell growth in a cell viability assay.

HT55 = assay: cells; type: functional, cell-based; details: Homo sapiens;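 note: cell viability readout measuring growth inhibition of human HT55 cells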
Description: SANGER: Inhibition of human HT55 cell growth in a cell viability assay.

NCI-H292 = assay: cells; type: functional, cell-based; details: Homo sapiens;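 note: growth inhibition of NCI-H292 cells, read out with a cell viability assay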
Description: SANGER: Inhibition of human NCI-H292 cell growth in a cell viability assay.

HCT-116 = assay: cells; type: functional, cell-based; details: Homo sapiens
Description: SANGER: Inhibition of human HCT-116 cell growth in a cell viability assay.

MCF7 = assay: cells; type: functional, cell-based; details: Homo sapiens;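 note: growth inhibition of human MCF7 cells, read out with a cell viability assay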
Description: SANGER: Inhibition of human MCF7 cell growth in a cell viability assay.

COR-L23 = assay: cells; type: functional, cell-based; details: Homo sapiens;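 note: cell viability assay measuring how strongly compounds suppress growth of COR-L23 cells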
Description: SANGER: Inhibition of human COR-L23 cell growth in a cell viability assay.

SK-MES-1 = assay: cells; type: functional, cell-based; details: Homo sapiens;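 note: growth inhibition of human SK-MES-1 cells, read out with a cell viability assay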
Description: SANGER: Inhibition of human SK-MES-1 cell growth in a cell viability assay.

HT-1080 = assay: cells; type: functional, cell-based; details: Homo sapiens
Description: SANGER: Inhibition of human HT-1080 cell growth in a cell viability assay.

SNU-423 = assay: cells; type: functional, cell-based; details: Homo sapiens
Description: SANGER: Inhibition of human SNU-423 cell growth in a cell viability assay.

MC-CAR = assay: cells; type: functional, cell-based, Homo sapiens; details: Homo sapiens, MC-CAR;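 note: growth inhibition of the human MC-CAR cell line, read out by a cell viability assay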
Description: SANGER: Inhibition of human MC-CAR cell growth in a cell viability assay.

A2780 = assay: cells; type: functional, cell-based; details: Homo sapiens;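 note: growth inhibition of A2780 cells, read out with a cell viability assay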
Description: SANGER: Inhibition of human A2780 cell growth in a cell viability assay.

OAW-28 = assay: cells; type: functional, cell-based; details: Homo sapiens;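 note: growth inhibition of OAW-28 cells, read out with a cell viability assay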
Description: SANGER: Inhibition of human OAW-28 cell growth in a cell viability assay.

NCI-H358 = assay: cells; type: functional, cell-based; details: Homo sapiens;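 note: growth inhibition of NCI-H358 human cells, read out with a cell viability assay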
Description: SANGER: Inhibition of human NCI-H358 cell growth in a cell viability assay.

OVCAR-3 = assay: cells; type: functional, cell-based; details: Homo sapiens;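 note: growth inhibition of human OVCAR-3 cells, determined by a cell viability assay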
Description: SANGER: Inhibition of human OVCAR-3 cell growth in a cell viability assay.

CAL-72 = assay: cells; type: functional, cell-based; details: Homo sapiens;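 note: cell viability assay measuring inhibition of proliferation in the CAL-72 cell line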
Description: SANGER: Inhibition of human CAL-72 cell growth in a cell viability assay.

NCI-H2228 = assay: cells; type: functional, cell-based; details: Homo sapiens;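 note: growth inhibition of human NCI-H2228 cells, read out by a cell viability assay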
Description: SANGER: Inhibition of human NCI-H2228 cell growth in a cell viability assay.

CAL-39 = assay: cells; type: functional, cell-based; details: Homo sapiens;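 note: cell viability assay measuring growth inhibition of CAL-39 cells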
Description: SANGER: Inhibition of human CAL-39 cell growth in a cell viability assay.

SW1463 = assay: cells; type: functional, cell-based; details: Homo sapiens;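 note: growth inhibition of SW1463 cells, determined with a cell viability assay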
Description: SANGER: Inhibition of human SW1463 cell growth in a cell viability assay.

DG-75 = assay: cells; type: functional, cell-based, Homo sapiens; details: Homo sapiens, DG-75;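 note: growth inhibition of DG-75 cells, read out with a cell viability assay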
Description: SANGER: Inhibition of human DG-75 cell growth in a cell viability assay.

Ca-Ski = assay: cells; type: functional, cell-based; details: Homo sapiens;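 note: cell viability assay measuring inhibition of Ca-Ski cell growth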
Description: SANGER: Inhibition of human Ca-Ski cell growth in a cell viability assay.

A2058 = assay: cells; type: functional, cell-based; details: Homo sapiens;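 note: reduction of A2058 cell growth, read out with a viability assay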
Description: SANGER: Inhibition of human A2058 cell growth in a cell viability assay.

23132-87 = assay: cells; type: functional, cell-based; details: Homo sapiens
Description: SANGER: Inhibition of human 23132-87 cell growth in a cell viability assay.

RT-112 = assay: cells; type: functional, cell-based; details: Homo sapiens
Description: SANGER: Inhibition of human RT-112 cell growth in a cell viability assay.

NCI-H2141 = assay: cells; type: functional, cell-based, Homo sapiens; details: Homo sapiens, NCI-H2141;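 note: growth inhibition of human NCI-H2141 cells, read out with a cell viability assay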
Description: SANGER: Inhibition of human NCI-H2141 cell growth in a cell viability assay.

CaR-1 = assay: cells; type: functional, cell-based; details: Homo sapiens;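 note: growth inhibition of human CaR-1 cancer cells, read out with a cell viability assay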
Description: SANGER: Inhibition of human CaR-1 cell growth in a cell viability assay.

CAL-12T = assay: cells; type: functional, cell-based; details: Homo sapiens;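 note: growth inhibition of human CAL-12T cells, read out with a cell viability assay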
Description: SANGER: Inhibition of human CAL-12T cell growth in a cell viability assay.

A 172 = assay: cells; type: functional, cell-based; details: Homo sapiens;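 note: growth inhibition of A172 cells, measured with a cell viability readout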
Description: SANGER: Inhibition of human A172 cell growth in a cell viability assay.

SMILES: C/C(=C\c1csc(C)n1)[C@@H]1C[C@@H]2O[C@]2(C)CCC[C@H](C)[C@H](O)[C@@H](C)C(=O)C(C)(C)[C@@H](O)CC(=O)O1 [PATUPILONE]
- IC50 (VMRC-RCZ): 0.136 nM
- IC50 (TE-15): 0.225 nM
- IC50 (SW948): 17.8 nM
- IC50 (H4): 0.975 nM
- IC50 (769-P): 0.753 nM
- IC50 (EB2): 3.69 nM
- IC50 (TUR): 1.86 nM
- IC50 (LC4-1): 12.8 nM
- IC50 (PF-382): 8.68 nM
- IC50 (RPMI-2650): 2.08 nM
- IC50 (SW780): > 32 nM
- IC50 (SW837): 2.47 nM
- IC50 (NCI-H441): 2.53 nM
- IC50 (ST486): 0.721 nM
- IC50 (CWR22R): 8.41 nM
- IC50 (NCI-H2347): > 32 nM
- IC50 (Hs-578T): > 32 nM
- IC50 (LB373-MEL-D): 18.1 nM
- IC50 (UMUC3): 1.85 nM
- IC50 (NCI-H1522): > 32 nM
- IC50 (LCLC-97TM1): 0.444 nM
- IC50 (HT-3): 15 nM
- IC50 (CAL-54): > 32 nM
- IC50 (NCI-H1417): 21 nM
- IC50 (BL-70): 2.16 nM
- IC50 (SW13): 5.01 nM
- IC50 (DMS-79): > 32 nM
- IC50 (SKG-IIIa): > 32 nM
- IC50 (DBTRG-05MG): 5.86 nM
- IC50 (MIA PaCa-2): 1.31 nM
- IC50 (TCC-SUP): 4.5 nM
- IC50 (LU-99A): 5.33 nM
- IC50 (BL-41): 1.35 nM
- IC50 (LOUCY): 4.35 nM
- IC50 (HT55): > 32 nM
- IC50 (NCI-H292): 1.42 nM
- IC50 (HCT-116): 4.69 nM
- IC50 (MCF7): 0.0866 nM
- IC50 (COR-L23): 1.35 nM
- IC50 (SK-MES-1): 1.24 nM
- IC50 (HT-1080): 0.842 nM
- IC50 (SNU-423): 1.67 nM
- IC50 (MC-CAR): 9.73 nM
- IC50 (A2780): 2.09 nM
- IC50 (OAW-28): 7.95 nM
- IC50 (NCI-H358): 2.48 nM
- IC50 (OVCAR-3): 4.13 nM
- IC50 (CAL-72): > 32 nM
- IC50 (NCI-H2228): 0.473 nM
- IC50 (CAL-39): 0.411 nM
- IC50 (SW1463): > 32 nM
- IC50 (DG-75): > 32 nM
- IC50 (Ca-Ski): 3.85 nM
- IC50 (A2058): 0.601 nM
- IC50 (23132-87): 3.67 nM
- IC50 (RT-112): 0.614 nM
- IC50 (NCI-H2141): 13.7 nM
- IC50 (CaR-1): > 32 nM
- IC50 (CAL-12T): 0.239 nM
- IC50 (A 172): 1.92 nM

Source: ChEMBL document CHEMBL1201861, “Genomics of Drug Sensitity in Cancer screening data, Wellcome Trust Sanger Institute”
